Measurements reported in PubChem BioAssay (NCI).
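Dose response: 5 concentrations. Exposure: 48 h. Format: 96-well plates. Endpoint: linear interpolation; highest concentration if not reached. The concentration for full growth arrest is given as TGI.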

Legend:
Experiment in all cases: growth of human tumour cells (NCI), 48 h
786-0 renal = tested on: 786-0 renal
A498 renal = tested on: A498 renal
A549 NSCLC = tested on: A549 NSCLC
ACHN renal = tested on: ACHN renal
CAKI-1 renal = tested on: CAKI-1 renal
CCRF-CEM leukemia = tested on: CCRF-CEM leukemia
COLO 205 colon = tested on: COLO 205 colon
DU-145 prostate = tested on: DU-145 prostate
EKVX NSCLC = tested on: EKVX NSCLC
HCC-2998 colon = tested on: HCC-2998 colon
HCT-116 colon = tested on: HCT-116 colon
HCT-15 colon = tested on: HCT-15 colon
HL-60(TB) leukemia = tested on: HL-60(TB) leukemia
HOP-62 NSCLC = tested on: HOP-62 NSCLC
HOP-92 NSCLC = tested on: HOP-92 NSCLC
HT29 colon = tested on: HT29 colon
IGROV1 ovarian = tested on: IGROV1 ovarian
K-562 leukemia = tested on: K-562 leukemia
KM12 colon = tested on: KM12 colon
LOX IMVI melanoma = tested on: LOX IMVI melanoma
M14 melanoma = tested on: M14 melanoma
MALME-3M melanoma = tested on: MALME-3M melanoma
MCF7 breast = tested on: MCF7 breast
MDA-MB-231 breast = tested on: MDA-MB-231 breast
MDA-MB-435 = tested on: MDA-MB-435
MDA-N = tested on: MDA-N
MOLT-4 leukemia = tested on: MOLT-4 leukemia
NCI-H226 lung = tested on: NCI-H226 lung
NCI-H23 lung = tested on: NCI-H23 lung
NCI-H460 lung = tested on: NCI-H460 lung
NCI-H522 lung = tested on: NCI-H522 lung
NCI/ADR-RES ovarian = tested on: NCI/ADR-RES ovarian
OVCAR-3 ovarian = tested on: OVCAR-3 ovarian
OVCAR-4 ovarian = tested on: OVCAR-4 ovarian
OVCAR-5 ovarian = tested on: OVCAR-5 ovarian
OVCAR-8 ovarian = tested on: OVCAR-8 ovarian
PC-3 prostate = tested on: PC-3 prostate
RXF 393 renal = tested on: RXF 393 renal
SF-268 CNS = tested on: SF-268 CNS
SF-295 CNS = tested on: SF-295 CNS
SF-539 CNS = tested on: SF-539 CNS
SK-MEL-2 melanoma = tested on: SK-MEL-2 melanoma
SK-MEL-28 melanoma = tested on: SK-MEL-28 melanoma
SK-MEL-5 melanoma = tested on: SK-MEL-5 melanoma
SK-OV-3 ovarian = tested on: SK-OV-3 ovarian
SN12C renal = tested on: SN12C renal
SNB-19 CNS = tested on: SNB-19 CNS
SNB-75 CNS = tested on: SNB-75 CNS
SR leukemia = tested on: SR leukemia
SW-620 colon = tested on: SW-620 colon
T-47D breast = tested on: T-47D breast
TK-10 renal = tested on: TK-10 renal
U251 CNS = tested on: U251 CNS
UACC-257 melanoma = tested on: UACC-257 melanoma
UACC-62 melanoma = tested on: UACC-62 melanoma
UO-31 renal = tested on: UO-31 renal

`CC(=O)OCC1OC(n2c(C)c(C(C)=O)c(-c3cccc4ccccc34)c(C#N)c2=S)C(OC(C)=O)C(OC(C)=O)C1OC(C)=O` (stereo not given) was tested, and the TGI (786-0 renal) was greater than 100 µM, the TGI (A498 renal) was greater than 100 µM and the TGI (A549 NSCLC) was greater than 100 µM. For the same molecule, the TGI (ACHN renal) was greater than 100 µM, the TGI (CAKI-1 renal) was greater than 100 µM and the TGI (CCRF-CEM leukemia) was greater than 100 µM. It also gave a TGI (COLO 205 colon) greater than 100 µM, a TGI (DU-145 prostate) greater than 100 µM and a TGI (EKVX NSCLC) greater than 100 µM. For the same molecule, the TGI (HCC-2998 colon) was greater than 100 µM, the TGI (HCT-116 colon) was greater than 100 µM and the TGI (HCT-15 colon) was greater than 100 µM. The TGI (HL-60(TB) leukemia) was greater than 100 µM, the TGI (HOP-62 NSCLC) was greater than 100 µM and the TGI (HOP-92 NSCLC) was greater than 100 µM. The TGI (HT29 colon) was greater than 100 µM, the TGI (IGROV1 ovarian) was greater than 100 µM and the TGI (K-562 leukemia) was greater than 100 µM. For the same molecule, the TGI (KM12 colon) was greater than 100 µM, the TGI (LOX IMVI melanoma) was greater than 100 µM and the TGI (M14 melanoma) was greater than 100 µM. The TGI (MALME-3M melanoma) was greater than 100 µM, the TGI (MCF7 breast) was greater than 100 µM and the TGI (MDA-MB-231 breast) was greater than 100 µM. The TGI (MDA-MB-435) was greater than 100 µM, the TGI (MDA-N) was greater than 100 µM and the TGI (MOLT-4 leukemia) was greater than 100 µM. For the same molecule, the TGI (NCI-H226 lung) was greater than 100 µM, the TGI (NCI-H23 lung) was greater than 100 µM and the TGI (NCI-H460 lung) was greater than 100 µM. It also gave a TGI (NCI-H522 lung) greater than 100 µM, a TGI (NCI/ADR-RES ovarian) greater than 100 µM and a TGI (OVCAR-3 ovarian) greater than 100 µM. For the same molecule, the TGI (OVCAR-4 ovarian) was greater than 100 µM, the TGI (OVCAR-5 ovarian) was greater than 100 µM and the TGI (OVCAR-8 ovarian) was greater than 100 µM. It also gave a TGI (PC-3 prostate) greater than 100 µM, a TGI (RXF 393 renal) greater than 100 µM and a TGI (SF-268 CNS) greater than 100 µM. It also gave a TGI (SF-295 CNS) greater than 100 µM, a TGI (SF-539 CNS) greater than 100 µM and a TGI (SK-MEL-2 melanoma) greater than 100 µM. The TGI (SK-MEL-28 melanoma) was greater than 100 µM, the TGI (SK-MEL-5 melanoma) was greater than 100 µM and the TGI (SK-OV-3 ovarian) was greater than 100 µM. It also gave a TGI (SN12C renal) greater than 100 µM, a TGI (SNB-19 CNS) greater than 100 µM and a TGI (SNB-75 CNS) greater than 100 µM. For the same molecule, the TGI (SR leukemia) was greater than 100 µM, the TGI (SW-620 colon) was greater than 100 µM and the TGI (T-47D breast) was greater than 100 µM. The TGI (TK-10 renal) was greater than 100 µM, the TGI (U251 CNS) was greater than 100 µM and the TGI (UACC-257 melanoma) was greater than 100 µM. The TGI (UACC-62 melanoma) was greater than 100 µM and the TGI (UO-31 renal) was 0.249 µM.

For `CCCCCCCCNC(=S)/N=C/c1c(O)c2ccccc2oc1=O`, the TGI (A498 renal) was 32.2 µM, the TGI (A549 NSCLC) was 35.2 µM and the TGI (ACHN renal) was 29.5 µM. The TGI (CCRF-CEM leukemia) was 30.9 µM, the TGI (COLO 205 colon) was 32.3 µM and the TGI (DU-145 prostate) was 33.6 µM. For the same molecule, the TGI (EKVX NSCLC) was 66.9 µM, the TGI (HCC-2998 colon) was 26.7 µM and the TGI (HCT-116 colon) was 31 µM. The TGI (HCT-15 colon) was 28.4 µM, the TGI (HOP-62 NSCLC) was 32.2 µM and the TGI (K-562 leukemia) was 40.1 µM. The TGI (KM12 colon) was 29.1 µM, the TGI (LOX IMVI melanoma) was 26 µM and the TGI (M14 melanoma) was 34.6 µM. For the same molecule, the TGI (MDA-MB-231 breast) was 32.4 µM, the TGI (MDA-N) was 34.3 µM and the TGI (MOLT-4 leukemia) was 33.7 µM. For the same molecule, the TGI (NCI-H226 lung) was 51.7 µM, the TGI (NCI-H23 lung) was 39.7 µM and the TGI (NCI-H460 lung) was 30.3 µM. The TGI (NCI-H522 lung) was 22.4 µM, the TGI (NCI/ADR-RES ovarian) was 47.4 µM and the TGI (OVCAR-3 ovarian) was 29.1 µM. It also gave a TGI (OVCAR-4 ovarian) of 29.4 µM, a TGI (OVCAR-5 ovarian) of 28.1 µM and a TGI (OVCAR-8 ovarian) of 52.4 µM. For the same molecule, the TGI (PC-3 prostate) was 28.5 µM, the TGI (RXF 393 renal) was 34.8 µM and the TGI (SF-295 CNS) was 34 µM. It also gave a TGI (SF-539 CNS) of 36.6 µM, a TGI (SK-MEL-2 melanoma) of 48 µM and a TGI (SK-MEL-28 melanoma) of 31.1 µM. It also gave a TGI (SK-MEL-5 melanoma) of 30.4 µM, a TGI (SN12C renal) of 38.7 µM and a TGI (SNB-75 CNS) of 34.2 µM. It also gave a TGI (T-47D breast) greater than 100 µM, a TGI (UACC-257 melanoma) of 40.9 µM and a TGI (UACC-62 melanoma) of 28.6 µM.
